These results are taken from US11634396B2 (priority 2021, dated 2023).

Like-named read-outs stand apart in the source and are kept apart here.

In the experiment the target is human mOR (Homo sapiens (Human), UniProt P35372). The experiment is described as follows: cell-based. Here is the method: CHO Tag-lite human mOR stable cell line from Cisbio (NCBI accession number: NM_000914.3, Bedford, Mass.) were seeded and grown to approximately 80% confluence in Ham F-12 with 10% FBS, 50 U/ml penicillin, 50 μg/ml streptomycin, 2 mM Hepes, and 1 mg/ml geneticin (Invitrogen, Carlsbad, Calif.). Cells were then harvested using accutase (Corning. Coming, N.Y.), centrifuged at 1300 RPM for 5 min, and plated at 5000 cells per 5 μL per well in a 5× dilution of stimulation buffer consisting of the HTRF cAMP Gi kit, water and IBMX at 0.5 mM (Cisbio, Bedford, Mass.) in white HTRF low volume 384 well plates (Cisbio, Bedford, Mass.). Plates were then incubated at 37° C. in 5% CO2 for 10 minutes. For the agonist assay, forskolin was added to a final concentration of 4 μM. […] Test compounds were dissolved in DMSO and water, and then serially diluted to working concentrations such that the concentration of DMSO was less than 0.1%. Diluted test compounds were added at 2.5 μL per well, and plates were incubated at 37° C., and 5% CO2 for 15 minutes, and then at room temperature for 15 minutes. Next 5 μl/well of cAMP Eu-cryptate and 5 μl/well of anti-cAMP-d2 (both diluted 1:20 in lysis buffer) were added, and plates were incubated at room temperature for 1 hour. Following incubation, plates were read in a Synergy Neo2 multi-mode reader (Biotek, Winooski, Vt.). […] For the agonist assay, data was normalized using the maximal DAMGO response. Measurements were performed in triplicate and the dose response was fit using nonlinear regression.

Setting [1] is: read-out: mOR cAMP Antagonist Assay IC50.
The mark [2] stands for this setting: CHO Tag-lite human mOR stable cell line, forskolin 4 μM and DAMGO at EC90, read-out: mOR cAMP Antagonist Assay IC50.

Chain of human mOR (P35372 whole entry): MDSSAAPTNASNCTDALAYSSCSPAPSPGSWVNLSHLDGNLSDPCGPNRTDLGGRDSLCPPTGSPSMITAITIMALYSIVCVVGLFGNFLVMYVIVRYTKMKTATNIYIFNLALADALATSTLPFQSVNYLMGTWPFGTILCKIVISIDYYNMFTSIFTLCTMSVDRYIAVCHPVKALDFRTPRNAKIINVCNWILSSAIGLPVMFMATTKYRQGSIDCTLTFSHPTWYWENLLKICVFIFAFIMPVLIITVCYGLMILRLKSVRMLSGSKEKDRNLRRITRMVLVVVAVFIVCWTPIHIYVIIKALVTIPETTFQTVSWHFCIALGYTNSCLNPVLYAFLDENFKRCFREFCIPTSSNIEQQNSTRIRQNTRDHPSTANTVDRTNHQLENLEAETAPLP

For the molecule `Cc1cc([C@@H](CC(=O)NC[C@H](Cc2ccc(C(N)=O)c(F)c2)N(C)C)C2(C(F)(F)F)CC2)cs1` [Compound 52, 4-((S)-2-(dimethylamino)-3-((S)-3-(5-methylthiophen-3-yl)-3-(1-(trifluoromethyl)cyclopropyl)propanamido)propyl)-2-fluorobenzamide], the half-maximal inhibitory concentration (IC50) is under 300 nM.
On the same count and under the same terms, for `Cc1ccc([C@@H](CC(=O)NC[C@H](Cc2ccc(C(N)=O)c(F)c2)N(C)C)C2(C(F)(F)F)CC2)s1` [Compound 53, 4-((S)-2-(dimethylamino)-3-((S)-3-(5-methylthiophen-2-yl)-3-(1-(trifluoromethyl)cyclopropyl)propanamido)propyl)-2-fluorobenzamide] the value was under 300 nM; for `CN(C)[C@H](CNC(=O)C[C@H](c1ccsc1)C1(C(F)(F)F)CC1)Cc1ccc(C(N)=O)c(F)c1` [Compound 54, 4-((S)-2-(dimethylamino)-3-((S)-3-(thiophen-3-yl)-3-(1-(trifluoromethyl)cyclopropyl)propanamido)propyl)-2-fluorobenzamide], over 3000 nM.
`CN(C)[C@H](CNC(=O)C[C@H](c1cncs1)C1(C(F)(F)F)CC1)Cc1ccc(C(N)=O)c(F)c1` [Compound 55, 4-((S)-2-(dimethylamino)-3-((S)-3-(thiazol-5-yl)-3-(1-(trifluoromethyl)cyclopropyl)propanamido)propyl)-2-fluorobenzamide]: the IC50 is under 300 nM.
Consider `Cc1cnc([C@@H](CC(=O)NC[C@H](Cc2ccc(C(N)=O)c(F)c2)N(C)C)C2(C(F)(F)F)CC2)s1` [Compound 56, 4-((S)-2-(dimethylamino)-3-((S)-3-(5-methylthiazol-2-yl)-3-(1-(trifluoromethyl)cyclopropyl)propanamido)propyl)-2-fluorobenzamide], for which the half-maximal inhibitory concentration (IC50) under setting [1] lay within 300 to 3000 nM.
Regarding `Cc1cnc([C@@H](CC(=O)NC[C@H](Cc2ccc(C(N)=O)c(F)c2)N(C)C)C2(C(F)(F)F)CC2)nc1` [Compound 57, 4-((S)-2-(dimethylamino)-3-((S)-3-(5-methylpyrimidin-2-yl)-3-(1-(trifluoromethyl)cyclopropyl)propanamido)propyl)-2-fluorobenzamide], the concentration for half-maximal inhibition (IC50) lay in the range of 300 to 3000 nM.
On the same count and under the same terms, the value for `Cc1ncc([C@H](CC(=O)NC[C@H](Cc2ccc(C(N)=O)c(F)c2)N(C)C)C2(C(F)(F)F)CC2)s1` [Compound 58, 4-((S)-2-(dimethylamino)-3-((R)-3-(2-methylthiazol-5-yl)-3-(1-(trifluoromethyl)cyclopropyl)propanamido)propyl)-2-fluorobenzamide] was over 3000 nM; that for `Cc1ncc([C@@H](CC(=O)NC[C@H](Cc2ccc(C(N)=O)c(F)c2)N(C)C)C2(C(F)(F)F)CC2)s1` [Compound 59, 4-((S)-2-(dimethylamino)-3-((S)-3-(2-methylthiazol-5-yl)-3-(1-(trifluoromethyl)cyclopropyl)propanamido)propyl)-2-fluorobenzamide] was under 300 nM.
For `CC(C)C[C@H](CC(=O)NC[C@H](Cc1ccc(C(N)=O)c(F)c1)N(C)C)c1cccnc1` [Compound 60, 4-((S)-2-(dimethylamino)-3-((R)-5-methyl-3-(pyridin-3-yl)hexanamido)propyl)-2-fluorobenzamide], under setting [2], the IC50 is under 300 nM.
As to `CN(C)[C@H](CNC(=O)C[C@H](c1ccncc1F)C1(C(F)(F)F)CC1)Cc1ccc(C(N)=O)c(F)c1` [Compound 61, 4-((S)-2-(dimethylamino)-3-((R)-3-(3-fluoropyridin-4-yl)-3-(1-(trifluoromethyl)cyclopropyl)propanamido)propyl)-2-fluorobenzamide], the IC50 was over 3000 nM.
On to `CN(C)[C@H](CNC(=O)C[C@H](CC1CC1)c1ccncc1)Cc1ccc(C(N)=O)c(F)c1` [Compound 62, 4-((S)-3-((S)-4-cyclopropyl-3-(pyridin-4-yl)butanamido)-2-(dimethylamino)propyl)-2-fluorobenzamide], for which the IC50 is under 300 nM.
Regarding `CN(C)[C@H](CNC(=O)C[C@@H](c1cncc(F)c1)C(C)(C)C)Cc1ccc(C(N)=O)c(F)c1` [Compound 63, 4-((S)-2-(dimethylamino)-3-((R)-3-(5-fluoropyridin-3-yl)-4,4-dimethylpentanamido)propyl)-2-fluorobenzamide], under setting [2], the IC50 was under 300 nM.
Same read-out and setting: the value for `CN(C)[C@H](CNC(=O)C[C@@H](CC1CC1)c1cncnc1)Cc1ccc(C(N)=O)c(F)c1` [Compound 64, 4-((S)-3-((R)-4-cyclopropyl-3-(pyrimidin-5-yl)butanamido)-2-(dimethylamino)propyl)-2-fluorobenzamide] was under 300 nM.
For the molecule `Cc1ncc([C@@H](CC(=O)NC[C@H](Cc2ccc(C(N)=O)c(F)c2)N(C)C)C2CC2)cn1` [Compound 67, 4-((S)-3-((S)-3-cyclopropyl-3-(2-methylpyrimidin-5-yl)propanamido)-2-(dimethylamino)propyl)-2-fluorobenzamide], the half-maximal inhibitory concentration (IC50) was over 3000 nM.
As to `CN(C)[C@H](CNC(=O)CC(c1ccc(Cl)cn1)C1(C(F)(F)F)CC1)Cc1ccc(C(N)=O)c(F)c1` (stereo partly drawn) [Compound 69, 4-((2S)-3-(3-(5-chloropyridin-2-yl)-3-(1-(trifluoromethyl)cyclopropyl)propanamido)-2-(dimethylamino)propyl)-2-fluorobenzamide], the IC50 is under 300 nM.
In the case of `CN(C)[C@H](CNC(=O)CC(c1ccncc1)C1(C(F)(F)F)CC1)Cc1ccc(C(N)=O)c(F)c1` (stereo partly drawn) [Compound 70, 4-[(2S)-2-(dimethylamino)-3-[3-(pyridin-4-yl)-3-[1-(trifluoromethyl)cyclopropyl]propanamido]propyl]-2-fluorobenzamide], the IC50 under setting [2] was over 3000 nM.
For the molecule `CN(C)[C@H](CNC(=O)CC(c1ncccn1)C1(C(F)(F)F)CC1)Cc1ccc(C(N)=O)c(F)c1` (stereo partly drawn) [Compound 71, 4-[(2S)-2-(dimethylamino)-3-[3-(pyrimidin-2-yl)-3-[1-(trifluoromethyl)cyclopropyl]propanamido]propyl]-2-fluorobenzamide], the IC50 is under 300 nM.
Still for that read-out and setting: the value for `CC(C)[C@H](CC(=O)NC[C@H](Cc1ccc(C(N)=O)c(F)c1)N(C)C)c1cccnc1` [Compound 78, 4-[(2S)-2-(dimethylamino)-3-[(3S)-4-methyl-3-(pyridin-3-yl)pentanamido]propyl]-2-fluorobenzamide] was over 3000 nM; that for `Cc1ncc([C@@H](CC(=O)NC[C@H](Cc2ccc(C(N)=O)cc2)N(C)C)C2(C(F)(F)F)CC2)cn1` [Compound 79, 4-((S)-2-(dimethylamino)-3-((R)-3-(2-methylpyrimidin-5-yl)-3-(1-(trifluoromethyl)cyclopropyl)propanamido)propyl)benzamide] was under 300 nM.
On the same count and under the same terms, for `CN[C@H](CNC(=O)C[C@@H](c1ccccc1)C1(C(F)(F)F)CC1)Cc1ccc(C(N)=O)cc1` [Compound 82, 4-((S)-2-(methylamino)-3-((S)-3-phenyl-3-(1-(trifluoromethyl)cyclopropyl)propanamido)propyl)benzamide] the value was over 3000 nM.
Take `CN(C)[C@H](CNC(=O)C[C@H](c1ccncc1)C1(C(F)(F)F)CC1)Cc1ccc2[nH]c(=O)ccc2c1` [Compound 103, (R)-N-((S)-2-(dimethylamino)-3-(2-oxo-1,2-dihydroquinolin-6-yl)propyl)-3-(pyridin-4-yl)-3-(1-(trifluoromethyl)cyclopropyl) propanamide]: the half-inhibitory concentration (IC50) under setting [1] is over 3000 nM.
As for `CNC(=O)c1cc(F)c(C[C@@H](CNC(=O)C[C@H](c2cnc(C)nc2)C2(C(F)(F)F)CC2)N(C)C)c(F)c1` [Compound 105, 4-((S)-2-(dimethylamino)-3-((R)-3-(2-methylpyrimidin-5-yl)-3-(1-(trifluoromethyl)cyclopropyl)propanamido)propyl)-3,5-difluoro-N-methylbenzamide], the half-inhibitory concentration (IC50) is 300 to 3000 nM.
As for `CNC(=O)c1cc(C)c(C[C@@H](CNC(=O)C[C@H](c2ccc(Cl)cc2)C2(C(F)(F)F)CC2)N(C)C)c(C)c1` [Compound 106, 4-((S)-3-((R)-3-(4-chlorophenyl)-3-(1-(trifluoromethyl)cyclopropyl)propanamido)-2-(dimethylamino)propyl)-3,5-trimethylbenzamide], under setting [2], the IC50 was over 3000 nM.
As for `CNC(=O)c1ccc(C[C@@H](CNC(=O)C[C@H](c2ccc(Cl)cc2)C2(C(F)(F)F)CC2)N(C)C)cc1F` [Compound 107, 4-((S)-3-((R)-3-(4-chlorophenyl)-3-(1-(trifluoromethyl)cyclopropyl)propanamido)-2-(dimethylamino)propyl)-2-fluoro-N-methylbenzamide], the half-inhibitory concentration (IC50) is under 300 nM.
For `CNC(=O)c1cc(C)c(C[C@@H](CNC(=O)C[C@@H](CC(C)C)c2ccccn2)N(C)C)c(C)c1` [Compound 108, 4-((S)-2-(dimethylamino)-3-((R)-5-methyl-3-(pyridin-2-yl)hexanamido)propyl)-N,3,5-trimethylbenzamide], under setting [2], the half-maximal inhibitory concentration (IC50) was over 3000 nM.
On the same count and under the same terms, the value for `CNC(=O)c1ccc(C[C@@H](CNC(=O)C[C@@H](c2ccncc2)C2(C(F)(F)F)CC2)N(C)C)c(Cl)c1F` [Compound 110, 3-chloro-4-((S)-2-(dimethylamino)-3-((S)-3-(pyridin-4-yl)-3-(1-(trifluoromethyl)cyclopropyl)propanamido)propyl)-2-fluoro-N-methylbenzamide] was over 3000 nM.
